Measured values taken from patent publication US9023844B2, “Heterocyclylpyri (mi) dinylpyrazole as fungicidals” (Bayer Intellectual Property GmbH, priority 2011, dated 2015).
Where two headings read alike, the source gives them in different places.

What was measured:
Leptosphaeria nodorum = test: Example C: Leptosphaeria test (wheat) / preventive; type: in vivo; settings: in vivo
Sphaerotheca fuliginea = test: Example A: Sphaerotheca test (cucumber) / preventive; type: in vivo; settings: in vivo
Plasmopara viticola = test: Example H: Plasmopara test (grapevines) / preventive; type: in vivo; settings: in vivo
Pyricularia oryzae [1] = type: in vivo; settings: in vivo
Pyrenophora teres [2] = test: Example D: Pyrenophora test (barley) / preventive; type: in vivo; settings: in vivo
Phytophthora infestans = type: in vivo; settings: in vivo
Uromyces appendiculatus = test: Example B: Uromyces test (beans) / preventive; type: in vivo; settings: in vivo
Puccinia recondita = test: Example E: Puccinia test (wheat) / preventive; type: in vivo; settings: in vivo
[3] = tested on: Fusarium nivale (var. majus); test: Example K: Fusarium nivale (var. majus) test (wheat) / preventive; type: in vivo; settings: 500 ppm of active ingredient, preventive spray, evaluated 5 days after inoculation
Description: After the spray coating has been dried, the plants are slightly injured by using a sandblast and afterwards they are sprayed with a conidia suspension of Fusarium nivale (var. majus).
The test is evaluated 5 days after the inoculation.

[4] = Determination of log P values by HPLC on a reverse phase column (C18), EEC-Directive 79/831 Annex V.A8 (Methods A, B, C); type: physicochemical; settings: for chromatographic logP: reverse phase C18 HPLC column
Procedure, shortened: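 Three C18 chromatographic methods following EEC-Directive 79/831 Annex V.A8 gave the logP values. Method C (UPLC, 2.1 mm column) ran at 40 °C and 0.8 mL/min with a 3.25 min 10–95% acetonitrile gradient. Methods A and B both ran at 55 °C and 2.0 mL/min, with gradients of 10–95% in 4.25 min and 5–95% in 1.70 min.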

Septoria tritici = test: Example J: Septoria tritici test (wheat) / preventive; type: in vivo; settings: in vivo
Venturia inaequalis = test: Example I: Venturia test (apples) / preventive; settings: 100 ppm of active ingredient, preventive spray, evaluated 10 days after inoculation
Description: After the spray coating has dried on, the plants are inoculated with an aqueous conidia suspension of the causal agent of apple scab (Venturia inaequalis) and then remain for 1 day in an incubation cabinet at approximately 20° C. and a relative atmospheric humidity of 100%.
The plants are then placed in a greenhouse at approximately 21° C. and a relative atmospheric humidity of approximately 90%.
The test is evaluated 10 days after the inoculation.

Fusarium graminearum [5] = type: in vivo; settings: in vivo
Fusarium graminearum [6] = test: microbe, parasite or virus in culture; type: cell-based
[7] = tested on: DON/Acetyl-DON production by Fusarium graminearum; test: microbe, parasite or virus in culture; type: cell-based
Pyrenophora teres [8] = settings: in vivo
Pyricularia oryzae [9] = type: in vivo
[10] = Method B (HPLC, reverse phase C18)
[11] = Method A: HPLC, reverse phase C18, acetonitrile (0.1% formic acid)/water (0.09% formic acid) gradient
[12] = Method C (HPLC, reverse phase C18)

CC(C)C(=O)Nc1cc(-c2c(-c3ccc(F)cc3F)nn3c2OCCC3)ccn1 [Example 37]
efficacy (Leptosphaeria nodorum): 70%
efficacy (Sphaerotheca fuliginea): 100%
efficacy (Plasmopara viticola): 100%
efficacy (Pyricularia oryzae [1]): 94%
efficacy (Pyrenophora teres [2]): 95%
efficacy (Phytophthora infestans): 95%
efficacy (Uromyces appendiculatus): 94%
efficacy (Puccinia recondita): 100%
efficacy [3]: 100%
LogP [4, 10]: 1.6
efficacy (Septoria tritici): 88%
efficacy (Venturia inaequalis): 100%
efficacy (Fusarium graminearum [5]): 100%

CCC(=O)N(C(=O)CC)c1cc(-c2c(-c3ccc(F)cc3)nn3c2OCCC3)ccn1 [Example 53]
efficacy (Leptosphaeria nodorum): 90%
efficacy (Sphaerotheca fuliginea): 95%
efficacy (Plasmopara viticola): 98%
efficacy (Pyricularia oryzae [1]): 90%
efficacy (Pyrenophora teres [2]): 100%
efficacy (Phytophthora infestans): 95%
efficacy (Uromyces appendiculatus): 74%
Growth inhibition of Fusarium graminearum in % (Fusarium graminearum [6]; at 50 μM): 79%
Inhibition of DON/AcDON in % ([7]; at 50 μM): 100%
efficacy (Puccinia recondita): 95%
efficacy [3]: 100%
LogP [4, 11]: 2.74
efficacy (Septoria tritici): 75%
efficacy (Venturia inaequalis): 100%
efficacy (Fusarium graminearum [5]): 100%

CC(C)C(=O)Nc1cc(-c2c(-c3ccc(F)cc3)nn3c2OCCC3C)ccn1 (stereo not shown) [Example 62]
efficacy (Sphaerotheca fuliginea): 100%
efficacy (Plasmopara viticola): 100%
efficacy (Pyricularia oryzae [1]): 95%
efficacy (Pyrenophora teres [2]): 95%
efficacy (Phytophthora infestans): 95%
efficacy (Uromyces appendiculatus): 78%
Growth inhibition of Fusarium graminearum in % (Fusarium graminearum [6]; at 50 μM): 86%
Inhibition of DON/AcDON in % ([7]; at 50 μM): 99%
efficacy (Puccinia recondita): 90%
efficacy [3]: 100%
LogP [4, 11]: 1.86
efficacy (Septoria tritici): 75%
efficacy (Venturia inaequalis): 100%
efficacy (Fusarium graminearum [5]): 100%

O=C(Nc1cc(-c2c(-c3ccc(F)cc3)nn3c2OCCC3)ccn1)C1C2CCCCC21 (stereo not shown) [Example 65]
protection (% of efficacy) (Pyrenophora teres [8]): 71%
LogP [4, 10]: 2.13
protection (% of efficacy) (Pyricularia oryzae [9]; in vivo): 80%

CCC(=O)Nc1cc(-c2c(-c3ccc(F)cc3)nn3c2OC[Si](C)(C)C3)ccn1 [Example 77]
efficacy (Leptosphaeria nodorum): 94%
efficacy (Sphaerotheca fuliginea): 95%
efficacy (Plasmopara viticola): 100%
efficacy (Pyricularia oryzae [1]): 90%
efficacy (Pyrenophora teres [2]): 95%
efficacy (Phytophthora infestans): 100%
efficacy (Uromyces appendiculatus): 94%
Growth inhibition of Fusarium graminearum in % (Fusarium graminearum [6]; 50 µM): 91%
Inhibition of DON/AcDON in % ([7]; 50 µM): 100%
efficacy (Puccinia recondita): 100%
efficacy [3]: 90%
LogP [4, 12]: 2.15
efficacy (Septoria tritici): 71%
efficacy (Venturia inaequalis): 96%
efficacy (Fusarium graminearum [5]): 100%

CC(=O)Nc1cc(-c2c(-c3cccs3)nn3c2OC[Si](C)(C)C3)ccn1 [Example 85]
efficacy (Leptosphaeria nodorum): 90%
efficacy (Plasmopara viticola): 97%
efficacy (Pyricularia oryzae [1]): 90%
efficacy (Pyrenophora teres [2]): 95%
efficacy (Phytophthora infestans): 95%
Inhibition of DON/AcDON in % ([7]; 50 µM): 99%
efficacy (Puccinia recondita): 78%
efficacy [3]: 100%
LogP [4, 12]: 1.74
efficacy (Septoria tritici): 86%
efficacy (Venturia inaequalis): 97%
efficacy (Fusarium graminearum [5]): 71%

C[Si]1(C)COc2c(-c3ccnc(N)c3)c(-c3cccs3)nn2C1 [Example 89, 4-[3,3-dimethyl-7-(2-thienyl)-3,4-dihydro-2H-pyrazolo[5,1-b][1,3,5]oxazasilin-8-yl]pyridin-2-amine]
chromatographic logP ([4]; Method C (HPLC, reverse phase C18), read-out: LogP): 1.55
chromatographic logP ([4]; pH 2.3, intermediates of formula [II], HPLC, reverse phase C18, read-out: LogP (pH 2.3)): 1.55
protection (% of efficacy) (Pyricularia oryzae [9]; dose of 500 ppm, rice plants, grading 6 days after contamination): 75%

CCC(=O)N(C(=O)CC)c1cc(-c2c(-c3ccc(F)cc3F)nn3c2OCCC3)ccn1 [Example 95]
Growth inhibition of Fusarium graminearum in % (Fusarium graminearum [6]; at 50 μM): 77%
Inhibition of DON/AcDON in % ([7]; at 50 μM): 97%
LogP [4, 11]: 2.68
protection (% of efficacy) (Pyricularia oryzae [9]; in vivo): 83%
